Results as given in ChEMBL document CHEMBL4673347, “Discovery of new thieno[2,3-d]pyrimidine and thiazolo[5,4-d]pyrimidine derivatives as orally active phosphoinositide 3-kinase inhibitors” (Bioorg Med Chem, 2021).
pIC50: −log10 of the molar value. ≈ marks a conversion by molar mass, not a printed value. Calls of active or inactive are those of the source. The rule behind the calls is not given here.

What was measured:
[1] = molecular target: Phosphatidylinositol 4,5-bisphosphate 3-kinase catalytic subunit alpha isoform (Homo sapiens, UniProt P42336); test: Inhibition of recombinant human full length His-tagged PI3Kalpha expressed in baculovirus expression system using PIP2 as substrate by ADP-Glo reagent based assay
HGC-27 [2] = test: Antiproliferative activity against human HGC-27 cells assessed as reduction in cell viability incubated for 72 hrs measured after 4 hrs of MTT addition by MTT assay; format: functional, cell-based
HGC-27 [3] = test: Inhibition of PI3K signalling in human HGC-27 cells assessed as reduction in AKT S473 phosphorylation incubated for 3 hrs by Western blot analysis; format: cell-based; details: dose 20-1000 nM
HGC-27 [4] = test: Inhibition of PI3K signalling in human HGC-27 cells assessed as reduction in 4E-BP1 phosphorylation incubated for 3 hrs by Western blot analysis; format: cell-based; details: dose 20-1000 nM
HGC-27 [5] = test: Induction of cell cycle arrest in human HGC-27 cells assessed as G0/G1 phase incubated for 24 hrs by propidium iodide staining based flow cytometry analysis; format: functional; details: dose 20-500 nM
HGC-27 [6] = test: Induction of apoptosis in human HGC-27 cells assessed as viable cells at 500 nM incubated for 24 hrs by annexin V-FITC and propidium iodide based staining based flow cytometry analysis (reference value: 83.7 %); format: functional; details: read-out: Activity
HGC-27 [7] = test: Induction of apoptosis in human HGC-27 cells assessed as early apoptotic cells at 500 nM incubated for 24 hrs by annexin V-FITC and propidium iodide based staining based flow cytometry analysis (reference value: 6.22 %); format: functional
HGC-27 [8] = test: Induction of apoptosis in human HGC-27 cells assessed as late apoptotic cells at 500 nM incubated for 24 hrs by annexin V-FITC and propidium iodide based staining based flow cytometry analysis (reference value: 8.15 %); format: functional
[9] = molecular target: Phosphatidylinositol 4,5-bisphosphate 3-kinase catalytic subunit beta isoform (Homo sapiens, UniProt P42338); test: Inhibition of recombinant human PI3Kbeta using PIP2 as substrate by ADP-Glo reagent based assay
[10] = molecular target: Phosphatidylinositol 4,5-bisphosphate 3-kinase catalytic subunit delta isoform (Homo sapiens, UniProt O00329); test: Inhibition of recombinant human full length His-tagged PI3Kdelta expressed in baculovirus expression system using PIP2 as substrate by ADP-Glo reagent based assay
[11] = molecular target: Phosphatidylinositol 4,5-bisphosphate 3-kinase catalytic subunit gamma isoform (Homo sapiens, UniProt P48736); test: Inhibition of recombinant human GST-tagged PI3Kgamma (468 to 1203 residues) expressed in insect expression system using PIP2 as substrate by ADP-Glo reagent based assay
BGC-823 = test: Antiproliferative activity against human BGC-823 cells assessed as reduction in cell viability incubated for 72 hrs measured after 4 hrs of MTT addition by MTT assay; format: functional, cell-based
AGS = test: Antiproliferative activity against human AGS cells assessed as reduction in cell viability incubated for 72 hrs measured after 4 hrs of MTT addition by MTT assay; format: functional, cell-based
MGC-803 = test: Antiproliferative activity against human MGC-803 cells assessed as reduction in cell viability incubated for 72 hrs measured after 4 hrs of MTT addition by MTT assay; format: functional, cell-based
[12] = Antiproliferative activity against human KATO III stomach cancer cell line cells assessed as reduction in cell viability incubated for 72 hrs measured after 4 hrs of MTT addition by MTT assay; format: functional
MKN-45 = test: Antiproliferative activity against human MKN-45 cells assessed as reduction in cell viability incubated for 72 hrs measured after 4 hrs of MTT addition by MTT assay; format: functional, cell-based
SNU-16 = test: Antiproliferative activity against human SNU-16 cells assessed as reduction in cell viability incubated for 72 hrs measured after 4 hrs of MTT addition by MTT assay; format: functional, cell-based
NCI-H460 = test: Antiproliferative activity against human NCI-H460 cells assessed as reduction in cell viability incubated for 72 hrs measured after 4 hrs of MTT addition by MTT assay; format: functional, cell-based
NCI-H23 = test: Antiproliferative activity against human NCI-H23 cells assessed as reduction in cell viability incubated for 72 hrs measured after 4 hrs of MTT addition by MTT assay; format: functional, cell-based
NCI-H358 = test: Antiproliferative activity against human NCI-H358 cells assessed as reduction in cell viability incubated for 72 hrs measured after 4 hrs of MTT addition by MTT assay; format: functional, cell-based
NCI-H1437 = test: Antiproliferative activity against human NCI-H1437 cells assessed as reduction in cell viability incubated for 72 hrs measured after 4 hrs of MTT addition by MTT assay; format: functional, cell-based
MDA-MB-231 = test: Antiproliferative activity against human MDA-MB-231 cells assessed as reduction in cell viability incubated for 72 hrs measured after 4 hrs of MTT addition by MTT assay; format: functional, cell-based
[13] = Kinetic solubility of compound in PBS buffer at pH 7.4; format: physicochemical; details: read-out: Kinetic_solubility
[14] = Apparent permeability across apical to basolateral side in human Caco-2 cells; format: ADME, cell-based
[15] = Protein binding in plasma (unknown origin) assessed as unbound fraction; format: ADME, cell-free
[16] = Clearance in ICR mouse at 4 mg/kg, iv measured upto 24 hrs by LC-MS/MS analysis; format: ADME, organism-based; details: in vivo
[17] = Volume of distribution at steady state in ICR mouse at 4 mg/kg, iv measured upto 24 hrs by LC-MS/MS analysis; format: ADME, organism-based; details: in vivo, read-out: Vdss
[18] = AUC (0 to t) in ICR mouse at 4 mg/kg, iv measured upto 24 hrs by LC-MS/MS analysis; format: ADME, organism-based; parameters: route intravenous, dose 4 mg/kg, time <=24; details: in vivo
[19] = AUC (0 to infinity) in ICR mouse at 4 mg/kg, iv measured upto 24 hrs by LC-MS/MS analysis; format: ADME, organism-based; parameters: route intravenous, dose 4 mg/kg, time <=24; details: in vivo
[20] = Cmax in ICR mouse at 40 mg/kg, po measured upto 24 hrs by LC-MS/MS analysis; format: ADME, organism-based; parameters: route oral, dose 40 mg/kg, time <=24; details: in vivo
[21] = AUC (0 to t) in ICR mouse at 40 mg/kg, po measured upto 24 hrs by LC-MS/MS analysis; format: ADME, organism-based; parameters: route oral, dose 40 mg/kg, time <=24; details: in vivo
[22] = AUC (0 to infinity) in ICR mouse at 40 mg/kg, po measured upto 24 hrs by LC-MS/MS analysis; format: ADME, organism-based; parameters: route oral, dose 40 mg/kg, time <=24; details: in vivo
[23] = Oral bioavailability in ICR mouse at 40 mg/kg measured upto 24 hrs by LC-MS/MS analysis; format: ADME, organism-based; details: in vivo
HGC-27 [24] = test: Antitumor activity against human HGC-27 cells xenografted in BALB/c mouse assessed as tumor growth inhibition at 40 mg/kg, po administered for 25 days and measured on day 25 relative to control; format: functional; details: HGC-27, po, 600 h, time 25 day, read-out: TGI
Mus musculus [25] = test: In vivo inhibition of PI3Kalpha in BALB/c mouse assessed as increase in plasma glucose level at 40 mg/kg, po measured after 30 mins; format: functional, organism-based
Mus musculus [26] = test: In vivo inhibition of PI3Kalpha in BALB/c mouse assessed as increase in plasma insulin level at 40 mg/kg, po measured after 30 mins by ELISA; format: functional, organism-based
Mus musculus [27] = test: In vivo inhibition of PI3Kalpha in BALB/c mouse assessed as increase in plasma glucose level at 40 mg/kg, po measured after 24 hrs; format: functional, organism-based
Mus musculus [28] = test: In vivo inhibition of PI3Kalpha in BALB/c mouse assessed as increase in plasma insulin level at 40 mg/kg, po measured after 24 hrs; format: functional, organism-based

Sequence of Phosphatidylinositol 4,5-bisphosphate 3-kinase catalytic subunit gamma isoform (P48736 whole entry, the tested form may be a part, canonical isoform): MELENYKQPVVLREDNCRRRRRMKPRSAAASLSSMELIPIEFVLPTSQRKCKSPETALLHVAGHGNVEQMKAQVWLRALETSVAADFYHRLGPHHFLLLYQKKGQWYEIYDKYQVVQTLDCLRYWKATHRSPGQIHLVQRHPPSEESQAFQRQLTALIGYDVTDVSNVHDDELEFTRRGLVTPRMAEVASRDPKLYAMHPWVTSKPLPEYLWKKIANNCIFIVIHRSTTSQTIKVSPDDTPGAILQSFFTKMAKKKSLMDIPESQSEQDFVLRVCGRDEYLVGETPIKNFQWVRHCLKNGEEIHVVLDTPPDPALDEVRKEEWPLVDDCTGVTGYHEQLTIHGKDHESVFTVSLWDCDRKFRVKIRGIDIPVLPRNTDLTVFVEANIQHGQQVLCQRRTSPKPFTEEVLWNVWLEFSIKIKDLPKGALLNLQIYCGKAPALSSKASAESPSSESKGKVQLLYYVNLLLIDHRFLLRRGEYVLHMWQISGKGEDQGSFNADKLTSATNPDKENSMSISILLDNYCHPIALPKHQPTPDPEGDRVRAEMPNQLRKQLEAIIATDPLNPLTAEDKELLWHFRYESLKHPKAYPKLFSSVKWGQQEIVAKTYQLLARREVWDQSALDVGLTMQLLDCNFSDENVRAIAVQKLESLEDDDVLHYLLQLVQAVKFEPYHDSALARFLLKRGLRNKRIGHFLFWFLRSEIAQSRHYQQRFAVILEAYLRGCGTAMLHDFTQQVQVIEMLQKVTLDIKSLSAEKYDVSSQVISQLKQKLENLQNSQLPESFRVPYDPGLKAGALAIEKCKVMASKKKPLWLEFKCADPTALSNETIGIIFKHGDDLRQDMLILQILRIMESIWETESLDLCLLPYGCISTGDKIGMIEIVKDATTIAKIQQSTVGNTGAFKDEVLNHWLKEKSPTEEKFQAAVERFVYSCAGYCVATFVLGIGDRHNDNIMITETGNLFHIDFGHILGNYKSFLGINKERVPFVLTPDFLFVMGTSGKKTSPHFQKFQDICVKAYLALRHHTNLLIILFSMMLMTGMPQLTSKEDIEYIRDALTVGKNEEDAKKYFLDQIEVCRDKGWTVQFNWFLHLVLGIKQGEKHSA
Sequence of Phosphatidylinositol 4,5-bisphosphate 3-kinase catalytic subunit alpha isoform (P42336 whole entry, canonical isoform): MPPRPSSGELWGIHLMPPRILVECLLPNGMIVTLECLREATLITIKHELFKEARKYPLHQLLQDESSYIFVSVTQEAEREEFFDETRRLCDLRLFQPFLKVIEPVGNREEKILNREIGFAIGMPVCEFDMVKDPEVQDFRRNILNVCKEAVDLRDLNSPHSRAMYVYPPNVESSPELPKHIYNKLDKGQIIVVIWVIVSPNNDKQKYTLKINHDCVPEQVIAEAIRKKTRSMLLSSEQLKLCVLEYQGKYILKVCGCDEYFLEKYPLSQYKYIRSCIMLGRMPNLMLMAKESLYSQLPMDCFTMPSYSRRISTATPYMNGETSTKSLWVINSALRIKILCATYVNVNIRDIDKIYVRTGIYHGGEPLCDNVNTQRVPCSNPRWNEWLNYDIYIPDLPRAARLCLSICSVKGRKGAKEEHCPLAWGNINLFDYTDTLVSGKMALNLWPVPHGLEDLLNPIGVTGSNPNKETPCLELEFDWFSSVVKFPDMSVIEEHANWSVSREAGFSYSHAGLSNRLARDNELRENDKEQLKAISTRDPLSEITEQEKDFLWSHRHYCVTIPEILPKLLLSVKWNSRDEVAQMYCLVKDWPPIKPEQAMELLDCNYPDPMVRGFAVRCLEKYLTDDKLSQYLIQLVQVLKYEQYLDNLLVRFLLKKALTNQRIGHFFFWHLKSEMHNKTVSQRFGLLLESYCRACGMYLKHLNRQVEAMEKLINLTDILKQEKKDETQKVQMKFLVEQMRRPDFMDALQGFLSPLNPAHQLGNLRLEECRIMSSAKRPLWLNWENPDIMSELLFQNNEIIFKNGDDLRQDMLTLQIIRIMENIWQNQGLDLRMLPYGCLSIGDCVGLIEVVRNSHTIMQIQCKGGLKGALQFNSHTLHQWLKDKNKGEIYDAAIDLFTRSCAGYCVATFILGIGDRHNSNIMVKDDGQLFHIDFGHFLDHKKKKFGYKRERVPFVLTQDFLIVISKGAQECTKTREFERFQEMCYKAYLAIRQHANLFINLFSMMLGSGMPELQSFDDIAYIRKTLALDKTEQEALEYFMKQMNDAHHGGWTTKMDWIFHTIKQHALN
Sequence of Phosphatidylinositol 4,5-bisphosphate 3-kinase catalytic subunit delta isoform (O00329 whole entry, the tested form may be a part, canonical isoform): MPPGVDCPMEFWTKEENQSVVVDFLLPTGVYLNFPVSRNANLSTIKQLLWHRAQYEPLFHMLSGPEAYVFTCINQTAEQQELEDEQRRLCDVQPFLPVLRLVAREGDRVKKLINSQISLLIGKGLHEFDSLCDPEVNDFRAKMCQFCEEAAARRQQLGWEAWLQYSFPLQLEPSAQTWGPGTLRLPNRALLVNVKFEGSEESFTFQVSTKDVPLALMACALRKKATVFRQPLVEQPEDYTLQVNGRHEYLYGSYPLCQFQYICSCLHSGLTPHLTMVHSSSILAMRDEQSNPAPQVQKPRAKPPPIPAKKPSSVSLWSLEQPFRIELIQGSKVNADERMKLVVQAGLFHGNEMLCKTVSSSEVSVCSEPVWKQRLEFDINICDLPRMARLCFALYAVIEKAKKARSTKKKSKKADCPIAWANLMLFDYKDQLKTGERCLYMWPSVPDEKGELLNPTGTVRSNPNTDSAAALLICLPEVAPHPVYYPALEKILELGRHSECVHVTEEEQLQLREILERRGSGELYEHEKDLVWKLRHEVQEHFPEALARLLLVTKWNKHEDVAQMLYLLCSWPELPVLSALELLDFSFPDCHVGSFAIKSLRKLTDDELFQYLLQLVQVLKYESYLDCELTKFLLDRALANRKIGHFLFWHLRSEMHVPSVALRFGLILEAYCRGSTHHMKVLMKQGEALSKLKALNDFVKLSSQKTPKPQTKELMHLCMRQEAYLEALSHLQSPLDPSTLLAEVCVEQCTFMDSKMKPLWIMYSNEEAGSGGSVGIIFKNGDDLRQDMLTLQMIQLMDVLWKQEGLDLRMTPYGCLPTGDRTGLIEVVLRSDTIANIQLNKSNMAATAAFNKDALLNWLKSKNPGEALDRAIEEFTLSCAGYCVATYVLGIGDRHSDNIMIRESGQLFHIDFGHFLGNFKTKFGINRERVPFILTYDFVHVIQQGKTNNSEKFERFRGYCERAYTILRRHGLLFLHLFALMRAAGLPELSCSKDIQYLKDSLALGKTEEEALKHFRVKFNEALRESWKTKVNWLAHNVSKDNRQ
Sequence of Phosphatidylinositol 4,5-bisphosphate 3-kinase catalytic subunit beta isoform (P42338 whole entry, canonical isoform): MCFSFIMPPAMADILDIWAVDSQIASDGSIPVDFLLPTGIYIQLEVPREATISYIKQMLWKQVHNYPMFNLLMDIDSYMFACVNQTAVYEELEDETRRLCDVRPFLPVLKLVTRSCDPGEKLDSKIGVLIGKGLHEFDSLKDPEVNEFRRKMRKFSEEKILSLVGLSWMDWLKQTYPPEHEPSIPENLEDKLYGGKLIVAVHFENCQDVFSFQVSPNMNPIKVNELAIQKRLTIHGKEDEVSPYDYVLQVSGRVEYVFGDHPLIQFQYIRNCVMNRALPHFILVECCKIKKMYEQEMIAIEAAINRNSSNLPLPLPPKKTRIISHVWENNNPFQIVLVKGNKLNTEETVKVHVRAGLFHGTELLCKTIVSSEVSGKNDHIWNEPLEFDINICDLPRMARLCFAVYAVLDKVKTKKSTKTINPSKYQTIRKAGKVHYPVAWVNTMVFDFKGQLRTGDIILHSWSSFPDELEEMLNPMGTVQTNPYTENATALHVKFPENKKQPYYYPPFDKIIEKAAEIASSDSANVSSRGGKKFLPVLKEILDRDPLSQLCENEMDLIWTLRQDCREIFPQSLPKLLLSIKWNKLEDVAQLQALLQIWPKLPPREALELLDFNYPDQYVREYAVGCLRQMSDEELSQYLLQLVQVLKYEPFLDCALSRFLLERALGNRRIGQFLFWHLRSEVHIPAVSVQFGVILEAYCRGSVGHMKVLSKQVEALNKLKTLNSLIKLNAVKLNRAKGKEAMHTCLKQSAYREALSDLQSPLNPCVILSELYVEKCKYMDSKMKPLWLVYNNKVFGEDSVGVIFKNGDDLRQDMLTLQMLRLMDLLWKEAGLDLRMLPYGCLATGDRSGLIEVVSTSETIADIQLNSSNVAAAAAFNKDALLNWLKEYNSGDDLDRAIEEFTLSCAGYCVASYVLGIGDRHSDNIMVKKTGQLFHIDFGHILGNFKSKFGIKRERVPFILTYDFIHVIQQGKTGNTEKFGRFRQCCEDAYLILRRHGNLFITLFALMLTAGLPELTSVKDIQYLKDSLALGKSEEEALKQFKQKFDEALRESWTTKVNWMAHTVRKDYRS

## COc1ncc(-c2nc3c(N4CCOCC4)ncnc3s2)cc1NS(=O)(=O)c1ccc(F)cc1F
[1]
  pIC50: 8.77
HGC-27 [2]
  pIC50: 7.40
HGC-27 [3]
  inhibition: Dose-dependent effect
HGC-27 [4]
  inhibition: Dose-dependent effect
HGC-27 [5]
  Activity: Dose-dependent effect
HGC-27 [6]
  viability at 0.5 µM: 77.7%
HGC-27 [7]
  Activity: 17.6%
HGC-27 [8]
  Activity: 4.53%
[9]
  pIC50: 8.28
[10]
  pIC50: 9.00
[11]
  pIC50: 8.70
BGC-823
  pIC50: 5.96
AGS
  pIC50: 6.14
MGC-803
  pIC50: 6.17
[12]
  pIC50: 6.03
MKN-45
  pIC50: 5.96
SNU-16
  pIC50: 5.51
NCI-H460
  pIC50: 6.31
NCI-H23
  pIC50: 6.24
NCI-H358
  pIC50: 6.00
NCI-H1437
  pIC50: 5.96
MDA-MB-231
  pIC50: 6.07
[13]
  solubility kinetic: 6.31 µM (≈ 3.28 µg/mL)
[14]
  Papp A→B: 21.4 ×10⁻⁶ cm/s
[15]
  Fu: 0.3%
[16]
  clearance: 2.65 mL/min/kg
[17]
  Vd: 0.513 L/kg
[18]
  AUC(0-t) at 24 h: 23200 ng·h/mL
[19]
  AUC(0-inf): 25300 ng·h/mL
[20]
  Cmax: 9610 ng/mL
[21]
  AUC(0-t) at 24 h: 126000 ng·h/mL
[22]
  AUC(0-inf): 142000 ng·h/mL
[23]
  bioavailability: 54.5%
HGC-27 [24]
  inhibition in vivo at 40 mg/kg: 88.7%
Mus musculus [25]
  inhibition: Active
Mus musculus [26]
  inhibition: Active
Mus musculus [27]
  inhibition: inactive
Mus musculus [28]
  inhibition: inactive

## COc1ncc(-c2cc3c(N4CCOCC4)ncnc3s2)cc1NS(=O)(=O)c1ccc(F)cc1F
[1]
  pIC50: 8.14
HGC-27 [2]
  pIC50: 6.41
HGC-27 [3]
  inhibition: Dose-dependent effect
HGC-27 [4]
  inhibition: Dose-dependent effect
HGC-27 [5]
  Activity: Dose-dependent effect
HGC-27 [6]
  viability at 0.5 µM: 75.1%
HGC-27 [7]
  Activity: 15.8%
HGC-27 [8]
  Activity: 8.87%
[9]
  pIC50: 7.30
[10]
  pIC50: 8.41
[11]
  pIC50: 7.92
BGC-823
  pIC50: 5.38
AGS
  pIC50: 5.41
MGC-803
  pIC50: 5.17
[12]
  pIC50: 5.33
MKN-45
  pIC50: 5.59
SNU-16
  pIC50: 5.24
NCI-H460
  pIC50: 5.40
NCI-H23
  pIC50: 5.36
NCI-H358
  pIC50: 5.28
NCI-H1437
  pIC50: 5.54
MDA-MB-231
  pIC50: 5.09
[13]
  solubility kinetic: 10.3 µM (≈ 5.35 µg/mL)
[14]
  Papp A→B: 21.1 ×10⁻⁶ cm/s
[15]
  Fu: 0.3%
[16]
  clearance: 4.6 mL/min/kg
[17]
  Vd: 0.537 L/kg
[18]
  AUC(0-t) at 24 h: 14300 ng·h/mL
[19]
  AUC(0-inf): 14600 ng·h/mL
[20]
  Cmax: 22500 ng/mL
[21]
  AUC(0-t) at 24 h: 143000 ng·h/mL
[22]
  AUC(0-inf): 187000 ng·h/mL
[23]
  bioavailability: 99.5%
HGC-27 [24]
  inhibition in vivo at 40 mg/kg: 58.2%
Mus musculus [25]
  inhibition: Active
Mus musculus [26]
  inhibition: Active
Mus musculus [27]
  inhibition: inactive
Mus musculus [28]
  inhibition: inactive
